Square brackets hold non-standard residues; d marks the D form. Peptide text beside a SMILES is read from it. d2Nal = N[C@H](Cc1ccc2ccccc2c1)C(=O)O; Orn = NCCC[C@H](N)C(=O)O; Dab = NCC[C@H](N)C(=O)O
Key:
[1] = Serum stability, anti-fungal activity after serum incubation by radial diffusion bioassay; type: in vitro ADME, rat or human serum; conditions: Activity in Serum t ½ (hr.)
Method: (§1) For these serum stability experiments, peptides were prepared by solid phase peptide sythesis and purified to 94% or greater purity as described in Example 1. Blood was collected from metaphane anesthesized rats by aortic bleed into Vacutainer™ tubes and allowed to clot at room temperature for approximately 30 minutes, then centrifuged at 3000 rpm (about 1000×g) for 10 minutes at room temperature and the serum aspirated. In addition, frozen human serum (North American Biologics, Inc., Miami, Fla., cat. no. 2140, lot no. 94115) was thawed at room temperature and filtered through a 0.45 μm membrane before use.
(§2) A 1 mg/mL solution of an exemplary XMP peptide to be tested was added to an equal volume of either rat or human serum described above and maintained at 37° C. At 0, 1, 2, and 4 hours, 100 μL were removed and processed by solid phase extraction for HPLC analysis as follows. Serum samples were prepared for HPLC using C-18 Sep-Pak cartridges (1 mL cartridge with 100 mg of sorbent, Waters Corp., Milford, Mass.). One hundred μL of serum sample were added to an equal volume of 1% TFA and mixed for 30 seconds on a Vortex mixer. The sample was then applied to a C-18 Sep-Pak cartridge that had been conditioned by washing with 1 mL of methanol followed by 1 mL Milli-Q water. Weakly reed components were eluted by washing with 1 mL of 0. 1% TFA. The bound peptide was eluted with two volumes of 250 μL 80% acetonitrile/0.065% TFA.
The peptides identified and purified after serum incubation as described above were subjected to N-terminal peptide sequencing performed on an Applied Biosystems Model 477A/120A sequencer and to electrospray ionization mass spectrometry (ESI/MS) performed using a VG Biotech Bio-Q Mass Spectrometer. In addition, the peptides identified and purified after serum incubation as described above were also tested for their anti-fungal activity in a radial diffusion bioassay with Candida albicans SLU-1 strain as described in Example 2.

[2] = test system: C. albicans (CA-1, Strain SLU-1); assay: Radial diffusion assay; type: cell-based, Candida albicans; conditions: pmoles of peptide added to well to achieve a 30 mm^2 zone, PROBIT analysis, crude or purified (P′) peptide
Outline: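 Peptides, serially diluted 2-fold in D-PBS (top ~1 mg/mL), diffused 3 h at 37° C into pH 7.4 phosphate-buffered agarose seeded with 1×10^6 CFU/mL yeast, before overnight growth under a 6% Sabouraud overlayer. Net inhibition zones measured after Coomassie staining; PROBIT fit of log pmol vs area gave pmol for 30 mm^2.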

in vitro = in vitro ADME, rat or human serum; conditions: serum, half-life of peptide in serum as detected by HPLC analysis; read-out: HPLC Peptide in Serum t ½ (converted)
Method: as §1, §2
The material eluted from the Sep-Pak cartridge was analyzed on a Michrom Ultaafast Microprotein Analyzer equipped with a 150 mm×1 mm, 5μ particle, 300 Å pore C-8 Zorbax column. The column oven was set to 40° C., the flow rate was 100 μL/minute, and injection volumes were typically 5-10 μL. HPLC was performed using 5% acetonitrile/0.1% TFA in water as mobile phase A, and 80% acetonitrile/0.065% TFA as mobile phase B. The eluate was monitored spectiophotometrically at 214 nm. Peptide standards were dissolved in mobile phase A at 0. 1 mg/mL. The gradient was 25-35% B/10 minutes followed by a 5 minute wash step of 100% B and reequilibration at 25% B for 10 minutes.

Question: For `CC[C@H](C)[C@H](NC(=O)[C@H](CC(C)C)NC(=O)[C@H](Cc1c[nH]c2ccccc12)NC(=O)[C@H](CCCCN)NC(=O)[C@H]1CCCN1)C(=O)N[C@@H](CCC(N)=O)C(=O)N[C@@H](CC(C)C)C(=O)N[C@@H](CCCCN)C(=O)N[C@@H](CCCCN)C(N)=O` [XMP.334], which half-life at 0.5 mg/mL [1] is on record?
Answer: 4.7 h

Question: What about the “C. albicans pmol/30 mm^2 zone” value [2] of the same molecule?
Answer: 1,449 pmol/30 mm^2 zone

Question: And the “C. albicans pmol/30 mm^2 zone” value ([2]; listed as XMP.334P′)?
Answer: 1,065 pmol/30 mm^2 zone

Question: And the half-life at 0.5 mg/mL (in vitro)?
Answer: 3.2 h

Question: For `CC[C@H](C)[C@H](NC(=O)[C@H](CC(C)C)NC(=O)[C@H](Cc1c[nH]c2ccccc12)NC(=O)[C@H](CCCCN)NC(=O)[C@@H]1CCCN1)C(=O)N[C@@H](CCC(N)=O)C(=O)N[C@@H](CC(C)C)C(=O)N[C@@H](CCCCN)C(=O)N[C@@H](CCCCN)C(N)=O` [XMP.335], which half-life at 0.5 mg/mL [1] is on record?
Answer: 1.3 h

Question: And the “C. albicans pmol/30 mm^2 zone” value [2]?
Answer: 871 pmol/30 mm^2 zone

Question: What about the “C. albicans pmol/30 mm^2 zone” value ([2]; listed as XMP.335P′) of the same molecule?
Answer: 1,353 pmol/30 mm^2 zone

Question: What about the half-life at 0.5 mg/mL (in vitro) of the same molecule?
Answer: 2.9 h

Question: With `CC[C@H](C)[C@H](NC(=O)[C@H](CC(C)C)NC(=O)[C@@H](Cc1ccc2ccccc2c1)NC(=O)[C@H](CCCCN)NC(=O)[C@@H](N)CCCCN)C(=O)N[C@@H](CC(C)C)C(=O)N[C@@H](CC(C)C)C(=O)N[C@@H](CCCCN)C(=O)N[C@@H](CCCCN)C(N)=O` [XMP.347] (H-KK[d2Nal]LILLKK-NH2) as the molecule, how does the half-life at 0.5 mg/mL [1] read?
Answer: 5.2 h

Question: What about the “C. albicans pmol/30 mm^2 zone” value [2] of the same molecule?
Answer: 391 pmol/30 mm^2 zone

Question: What about the half-life at 0.5 mg/mL (in vitro) of the same molecule?
Answer: 2.5 h

Question: Which half-life at 0.5 mg/mL [1] does the source give for `CC[C@@H](C)[C@@H](NC(=O)[C@@H](CCC(N)=O)NC(=O)[C@@H](CC(C)C)NC(=O)[C@@H](Cc1ccccc1)NC(=O)[C@@H](Cc1c[nH]cn1)NC(=O)[C@@H](CCCCN)NC(=O)[C@@H](CCCCN)NC(C)=O)C(=O)N[C@H](CC(C)C)C(=O)N[C@H](Cc1c[nH]c2ccccc12)C(=O)N[C@H](CCCCN)C(N)=O` [XMP.368] here?
Answer: 25.2 h

Question: And the “C. albicans pmol/30 mm^2 zone” value [2]?
Answer: 744 pmol/30 mm^2 zone

Question: What about the half-life at 0.5 mg/mL (in vitro) of the same molecule?
Answer: 34.1 h

Question: What does the source list for `CC[C@H](C)[C@H](NC(=O)[C@H](CC(C)C)NC(=O)[C@H](Cc1c[nH]c2ccccc12)NC(=O)[C@@H](N)CCCCN)C(=O)N[C@@H](CCCN)C(=O)N[C@@H](CC(C)C)C(=O)N[C@@H](Cc1ccccc1)C(=O)N[C@@H](Cc1c[nH]cn1)C(=O)N[C@@H](CCCCN)C(=O)N[C@@H](CCCCN)C(N)=O` [XMP.369] (H-KWLI[Orn]LFHKK-NH2)?
Answer: half-life at 0.5 mg/mL [1]: 1.4 h; C. albicans pmol/30 mm^2 zone [2]: 993 pmol/30 mm^2 zone; C. albicans pmol/30 mm^2 zone ([2]; listed as XMP.369P′): 877 pmol/30 mm^2 zone; half-life at 0.5 mg/mL (in vitro): 0.6 h

Question: Which half-life at 0.5 mg/mL [1] does the source give for `CC[C@H](C)[C@H](NC(=O)[C@H](CC(C)C)NC(=O)[C@H](Cc1c[nH]c2ccccc12)NC(=O)[C@H](CCCCN)NC(C)=O)C(=O)N[C@@H](CCCN)C(=O)N[C@@H](CC(C)C)C(=O)N[C@@H](Cc1ccccc1)C(=O)N[C@@H](Cc1c[nH]cn1)C(=O)N[C@@H](CCCCN)C(=O)N[C@@H](CCCCN)C(N)=O` [XMP.370] (Ac-KWLI[Orn]LFHKK-NH2) here?
Answer: 4.7 h

Question: And the “C. albicans pmol/30 mm^2 zone” value [2]?
Answer: 310 pmol/30 mm^2 zone

Question: What about the half-life at 0.5 mg/mL (in vitro) of the same molecule?
Answer: 2.9 h

Question: For `CC[C@H](C)[C@H](NC(=O)[C@H](CC(C)C)NC(=O)[C@H](Cc1c[nH]c2ccccc12)NC(=O)[C@H](CCCCN)NC(C)=O)C(=O)N[C@@H](CCN)C(=O)N[C@@H](CC(C)C)C(=O)N[C@@H](Cc1ccccc1)C(=O)N[C@@H](Cc1c[nH]cn1)C(=O)N[C@@H](CCCCN)C(=O)N[C@@H](CCCCN)C(N)=O` [XMP.372] (Ac-KWLI[Dab]LFHKK-NH2), which half-life at 0.5 mg/mL [1] is on record?
Answer: 1.4 h

Question: And the “C. albicans pmol/30 mm^2 zone” value [2]?
Answer: 328 pmol/30 mm^2 zone

Question: And the half-life at 0.5 mg/mL (in vitro)?
Answer: 6.6 h

Question: Which half-life at 0.5 mg/mL [1] does the source give for H-GWLIQLFHKK-NH2 [XMP.388] here?
Answer: 1.4 h

Question: What about the “C. albicans pmol/30 mm^2 zone” value [2] of the same molecule?
Answer: 170 pmol/30 mm^2 zone

Question: What about the half-life at 0.5 mg/mL (in vitro) of the same molecule?
Answer: 0.4 h

Question: For H-KKPWAIQLKK-NH2 [XMP.379], which half-life at 0.5 mg/mL [1] is on record?
Answer: 0.3 h

Question: What about the “C. albicans pmol/30 mm^2 zone” value [2] of the same molecule?
Answer: 547 pmol/30 mm^2 zone

Question: And the half-life at 0.5 mg/mL (in vitro)?
Answer: 0.8 h

Question: Which half-life at 0.5 mg/mL [1] does the source give for H-KKWAIQLKK-NH2 [XMP.344] here?
Answer: 3.3 h

Question: And the “C. albicans pmol/30 mm^2 zone” value [2]?
Answer: 251 pmol/30 mm^2 zone

Question: And the half-life at 0.5 mg/mL (in vitro)?
Answer: 0.6 h

Question: With H-KKWLIQAKK-NH2 [XMP.345] as the molecule, how does the half-life at 0.5 mg/mL [1] read?
Answer: 2.7 h

Question: And the “C. albicans pmol/30 mm^2 zone” value [2]?
Answer: 1,211 pmol/30 mm^2 zone

Question: What about the half-life at 0.5 mg/mL (in vitro) of the same molecule?
Answer: 1.4 h

From patent US6664231B1, “Anti-fungal peptides” (priority 1993, dated 2003)
